# Source: ChEMBL document CHEMBL1687927, “Design and optimization of potent and orally bioavailable tetrahydronaphthalene Raf inhibitors” (J Med Chem, 2011)
# Test system: not listed separately
# Assay: AUC (0 to 24 hrs) in mouse at 10 mg, po in 20% HPbCD vehicle
# Assay type: ADME, organism-based
# Set-up: dose 10 mg, time < 24 hr, route oral
# Conditions: plasma
row,AUC(0-t) at 24 h [µM·h],Compound
1,15.6,CC(C)NCc1cc(NC(=O)C2CCc3ccc(Oc4ccnc(NC(=O)C5CC5)c4)cc3C2)cc(C(F)(F)F)c1 (stereo not drawn)

# Test system: not listed separately
# Assay: Oral bioavailability in mouse at 10 mg
# Assay type: ADME, organism-based
# Conditions: in vivo
row,bioavailability [%],Compound
1,50,CNCc1cc(C(=O)N[C@@H]2CCc3ccc(Oc4ccnc5c4CCC(=O)N5)cc3C2)cc(C(F)(F)F)c1
2,22,CN(C)Cc1cc(C(=O)N[C@@H]2CCc3ccc(Oc4ccnc(NC(=O)C5CC5)c4)cc3C2)cc(C(F)(F)F)c1
3,20,CC(C)NCc1cc(NC(=O)[C@H]2CCc3ccc(Oc4ccnc5c4CCC(=O)N5)cc3C2)cc(C(F)(F)F)c1

# Target: T1, Serine/threonine-protein kinase B-raf (Homo sapiens, UniProt P15056, V600E)
# Assay: Inhibition of raf kinase in human A375 cells assessed as decrease in MEK-mediated ERK phosphorylation after 3 hrs using 3,3',5,5'-tetramethylbenzidine liquid substrate system
# Assay type: cell-based
# Conditions: a-375
# T1 sequence (P15056 2-766 V600E limits assumed): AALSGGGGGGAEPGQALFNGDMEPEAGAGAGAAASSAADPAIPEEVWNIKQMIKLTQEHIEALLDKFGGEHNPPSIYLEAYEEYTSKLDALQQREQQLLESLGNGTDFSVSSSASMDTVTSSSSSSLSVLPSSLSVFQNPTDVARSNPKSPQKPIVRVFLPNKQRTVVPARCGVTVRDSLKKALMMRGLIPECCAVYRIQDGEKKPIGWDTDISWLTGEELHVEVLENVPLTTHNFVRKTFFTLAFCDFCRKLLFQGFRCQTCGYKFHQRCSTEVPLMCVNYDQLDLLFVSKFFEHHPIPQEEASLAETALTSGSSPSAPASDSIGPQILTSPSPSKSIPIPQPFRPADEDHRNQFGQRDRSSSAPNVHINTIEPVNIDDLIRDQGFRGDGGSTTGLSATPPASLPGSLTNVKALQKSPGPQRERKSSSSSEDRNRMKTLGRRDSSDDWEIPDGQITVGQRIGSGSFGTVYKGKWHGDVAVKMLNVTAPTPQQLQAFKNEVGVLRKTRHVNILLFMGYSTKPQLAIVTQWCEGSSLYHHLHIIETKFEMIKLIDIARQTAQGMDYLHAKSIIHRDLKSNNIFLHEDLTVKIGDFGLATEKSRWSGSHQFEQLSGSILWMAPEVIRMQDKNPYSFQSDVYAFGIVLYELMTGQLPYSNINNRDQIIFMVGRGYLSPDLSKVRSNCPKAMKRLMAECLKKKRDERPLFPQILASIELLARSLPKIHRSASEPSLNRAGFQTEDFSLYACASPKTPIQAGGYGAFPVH
row,IC50 [nM],Compound
1,2900,CNC(=O)c1cc(Oc2ccc3c(c2)CC(C(=O)Nc2ccc(Cl)c(C(F)(F)F)c2)CC3)ccn1 (racemic)
2,190,CC(C)NCc1cc(NC(=O)C2CCc3ccc(Oc4ccnc(NC(=O)C5CC5)c4)cc3C2)cc(C(F)(F)F)c1 (stereo not drawn)
3,70,CN(C)Cc1cc(C(=O)N[C@@H]2CCc3ccc(Oc4ccnc(NC(=O)C5CC5)c4)cc3C2)cc(C(F)(F)F)c1
4,110,CC(C)NCc1cc(NC(=O)[C@H]2CCc3ccc(Oc4ccnc5c4CCC(=O)N5)cc3C2)cc(C(F)(F)F)c1

# Target: T1, Serine/threonine-protein kinase B-raf
# Conditions: not given
row,IC50 [nM],Compound
1,32,CNC(=O)c1cc(Oc2ccc3c(c2)CC(C(=O)Nc2ccc(Cl)c(C(F)(F)F)c2)CC3)ccn1 (racemic)
2,5,CC(C)NCc1cc(NC(=O)C2CCc3ccc(Oc4ccnc(NC(=O)C5CC5)c4)cc3C2)cc(C(F)(F)F)c1 (stereo not drawn)
3,2.9,CN(C)Cc1cc(C(=O)N[C@@H]2CCc3ccc(Oc4ccnc(NC(=O)C5CC5)c4)cc3C2)cc(C(F)(F)F)c1
4,3.3,CC(C)NCc1cc(NC(=O)[C@H]2CCc3ccc(Oc4ccnc5c4CCC(=O)N5)cc3C2)cc(C(F)(F)F)c1

# Test system: Mus musculus
# Assay: Plasma clearance in mouse at 1 mg/kg, iv and 10 mg, po in 10% HPbCD vehicle
# Assay type: ADME, organism-based
# Set-up: dose 1 mg/kg, route oral
# Conditions: in vivo
row,CL [L/h/kg],Compound
1,0.73,CNCc1cc(C(=O)N[C@@H]2CCc3ccc(Oc4ccnc5c4CCC(=O)N5)cc3C2)cc(C(F)(F)F)c1
2,2.14,CN(C)Cc1cc(C(=O)N[C@@H]2CCc3ccc(Oc4ccnc(NC(=O)C5CC5)c4)cc3C2)cc(C(F)(F)F)c1
3,0.32,CC(C)NCc1cc(NC(=O)[C@H]2CCc3ccc(Oc4ccnc5c4CCC(=O)N5)cc3C2)cc(C(F)(F)F)c1

# Test system: Mus musculus
# Assay: Volume of distribution at steady state in mouse at 1 mg/kg, iv or 10 mg, po
# Assay type: ADME, organism-based
# Set-up: dose 1 mg/kg, route oral
# Conditions: in vivo
row,Vdss [L/kg],Compound
1,0.75,CNCc1cc(C(=O)N[C@@H]2CCc3ccc(Oc4ccnc5c4CCC(=O)N5)cc3C2)cc(C(F)(F)F)c1
2,2.19,CN(C)Cc1cc(C(=O)N[C@@H]2CCc3ccc(Oc4ccnc(NC(=O)C5CC5)c4)cc3C2)cc(C(F)(F)F)c1
3,3.87,CC(C)NCc1cc(NC(=O)[C@H]2CCc3ccc(Oc4ccnc5c4CCC(=O)N5)cc3C2)cc(C(F)(F)F)c1

# Test system: not listed separately
# Assay: AUC (0 to 24 hrs) in mouse at 10 mg, po in 10% HPbCD vehicle
# Assay type: ADME, organism-based
# Set-up: time < 24 hr, dose 10 mg, route oral
# Conditions: plasma
row,AUC(0-t) at 24 h [µM·h],Compound
1,12.4,CNCc1cc(C(=O)N[C@@H]2CCc3ccc(Oc4ccnc5c4CCC(=O)N5)cc3C2)cc(C(F)(F)F)c1
2,0.51,CN(C)Cc1cc(C(=O)N[C@@H]2CCc3ccc(Oc4ccnc(NC(=O)C5CC5)c4)cc3C2)cc(C(F)(F)F)c1
3,20.7,CC(C)NCc1cc(NC(=O)[C@H]2CCc3ccc(Oc4ccnc5c4CCC(=O)N5)cc3C2)cc(C(F)(F)F)c1

# Target: RAF proto-oncogene serine/threonine-protein kinase (Homo sapiens, UniProt P04049)
# Assay: Inhibition of C-Raf assessed as reduction in [33P]ATP incorporation into biotinylated substrate peptide after 3 hrs by flash plate assay
# Conditions: not given
# RAF proto-oncogene serine/threonine-protein kinase, sequence (P04049 whole entry): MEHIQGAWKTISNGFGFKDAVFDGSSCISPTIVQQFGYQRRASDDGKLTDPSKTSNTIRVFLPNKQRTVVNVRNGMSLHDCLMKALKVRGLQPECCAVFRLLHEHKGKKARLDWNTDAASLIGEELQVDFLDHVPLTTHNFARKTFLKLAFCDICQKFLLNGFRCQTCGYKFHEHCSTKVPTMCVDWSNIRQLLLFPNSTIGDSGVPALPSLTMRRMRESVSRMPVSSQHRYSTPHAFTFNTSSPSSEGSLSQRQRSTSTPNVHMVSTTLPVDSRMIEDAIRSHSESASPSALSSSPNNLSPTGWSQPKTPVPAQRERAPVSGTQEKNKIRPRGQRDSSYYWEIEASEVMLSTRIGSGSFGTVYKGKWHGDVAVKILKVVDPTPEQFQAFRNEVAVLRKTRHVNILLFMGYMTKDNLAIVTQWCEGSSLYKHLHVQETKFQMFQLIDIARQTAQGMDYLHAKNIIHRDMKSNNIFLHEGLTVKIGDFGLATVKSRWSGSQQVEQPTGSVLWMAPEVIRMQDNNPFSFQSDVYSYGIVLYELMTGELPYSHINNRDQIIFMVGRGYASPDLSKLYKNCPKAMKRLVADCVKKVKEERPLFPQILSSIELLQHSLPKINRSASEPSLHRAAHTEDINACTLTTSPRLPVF
row,IC50 [nM],Compound
1,28,CNC(=O)c1cc(Oc2ccc3c(c2)CC(C(=O)Nc2ccc(Cl)c(C(F)(F)F)c2)CC3)ccn1 (racemic)
2,4.6,CC(C)NCc1cc(NC(=O)C2CCc3ccc(Oc4ccnc(NC(=O)C5CC5)c4)cc3C2)cc(C(F)(F)F)c1 (stereo not drawn)
